Data as given in patent publication US10035791B2, “Bicyclic compound and pharmaceutical composition thereof for treating stroke and use thereof” (China Medical University, priority 2016, dated 2018).

Key:
[1] = tested on: primary cortical cultures (PCCs); experiment: Lactate dehydrogenase (LDH) release rate analysis, H2O2-treated PCCs; format: cell-based, C57BL/6 mice; details: for LDH release rate of the PCCs treated with H2O2: compound 100 μM, 10^-4 mol/L H2O2, 24 hours, FIG. 1F; for concentration at which the LDH release rate of the PCCs is reduced most: tested 0.1, 1, 10 and 100 μM, FIG. 1G
Procedure: H2O2 can cause an oxidative damage to cells and a destruction of the cell membrane, and consequently the LDH is released into medium. For that reason, the lower rate of the LDH released into the culture medium is represented the fewer damaged cells and better cell protection effect of sample.
Test cells are primary cortical cultures (PCCs) in this example. The PCCs are prepared from cerebral cortexes of gestation day 17 embryos from C57BL/6 mice as described previously (Cell Death Differ 2008; 15: 143-151). The PCCs are maintained under serum-free conditions in neurobasal medium (Invitrogen), supplemented with B-27 supplement (2%; invitrogen), glutamine (0.5 mM; Sigma Aldrich), glutamate ([…]; Sigma Aldrich), penicillin (100 U/ml) and streptomycin ([…]; Invitrogen). At 4 days in vitro, half of the medium is removed and replaced with fresh medium without glutamate. The cultures are maintained in a humidified incubator at 37° C. with 5% CO2. At 7 days in vitro, the PCCs are used for experimentation.
The PCCs are seeded in a 24-well plate and are allowed to stand for 20 minutes. […] The PCCs are maintained at 37° C. in a humidified atmosphere of 5% CO2 for 24 hours. After incubation, the culture medium is collected and washed twice with phosphate buffered saline (PBS), and then are analyzed the LDH activity in the culture medium by using LDH Cytotoxicity Detection Kit (TaKaRa Bio Laboratories, Japan) to calculate the percentage cytotoxicity, which is represented the situation of cells damage, of the PCCs. The lower percentage cytotoxicity presents the lower LDH activity detected and less severe of cells damages, which indicates the better cell protection effect of the sample. The LDH activity is measured by a colorimetry. After a reaction between enzyme and particular substrate, an absorbance of the reaction solution and the LDH activity is linearly correlated. The LDH activity (U/10^−3 L) is calculated by a reduced optical density slope at a wavelength of 340 nm within three minutes. A lactate dehydrogenase activity unit is defined as a catalytic consumption of […] NADH per minute.

[2] = tested on: ischemic rats; experiment: Volume of the infarction after cerebral ischemia, magnetic resonance imaging (MRI); format: in vivo, Sprague-Dawley (SD) rats; details: 30 mg/kg, 7 days after the injection, FIGS. 18A, 18B
Description: The ischemic rats are induced by an ischemia-reperfusion model to simulate transient focal cerebral ischemia in rats. Test animals are male Sprague-Dawley (SD) rats weighing 250-300 g. The rats are anesthetized with chloral hydrate (0.4 g/kg IP) and subjected to cerebral ischemia. The ischemia-reperfusion model is induced by ligations of bilateral common carotid arteries (CCAs) and a right middle cerebral artery (MCA). The bilateral CCAs are clamped with non-traumatic arterial clips, and the right MCA is ligated with an 10-0 nylon suture. After 90 minutes ischemia, the suture on the MCA and the arterial clips on CCAs are removed to allow reperfusion. Core body temperature is monitored with a thermistor probe (Hewlett-Packard Model 21090A probe, Hewlett-Packard Company, Andover, Mass.), and maintained at 37° C. with a heating pad during anesthesia. After recovery from anesthesia, rat body temperature is maintained at 37° C. with a heat lamp.
Further, the ischemic rats are assigned into 5 groups, 4 test groups and 1 control group. The ischemic rats of the test groups are injected with 1 mg/kg of the Compound 1, 30 mg/kg of the genipin, 1 mg/kg of the Compound 1 and 100 mg/kg of 2-ME2, and 1 mg/kg of the Compound 1 and the LV-Bmi-1-sh, respectively. The ischemic rats of the control group are injected with the vehicle. At 7 days after the injection, the ischemic rats of the different groups are anesthetized, and the volume of the infarction thereof is assessed by a magnetic resonance imaging (MRI).

Row | SMILES | LDH release rate of the PCCs treated with H2O2 [1] | concentration at which the LDH release rate of the PCCs is reduced most [1] | area of the largest infarction (MRI) [2] | volume of the infarction (MRI) [2]
1 | COC(=O)C1=CO[C@@H](O)[C@@H]2C(COC(=O)[C@H](Cc3ccccc3)NC(=O)OC(C)(C)C)=CC[C@H]12 [Compound 3] | lower LDH release rate | 100 µM | – | –
2 | COC(=O)C1=CO[C@@H](OC(=O)[C@@H](N)Cc2ccccc2)[C@@H]2C(COC(=O)[C@@H](N)Cc3ccccc3)=CC[C@H]12 [Compound 15] | lower LDH release rate | 100 µM | – | –
3 | COC(=O)C1=CO[C@@H](OC(=O)[C@@H](N)Cc2ccccc2)[C@@H]2C(CO)=CC[C@H]12 [Compound 16] | – | 100 µM | – | –
4 | COC(=O)C1=CO[C@@H](O)[C@@H]2C(CO)=CC[C@H]12 [genipin, reference compound] | – | – | reduced | reduced
